Laboratory results published in ChEMBL document CHEMBL1201862, “PubChem BioAssay data set” (2004).
Calls of active or inactive are those of the source.

Assays:
[1] = target: Heat shock protein HSP 90-alpha (Homo sapiens, UniProt P07900); type: functional, organism-based
[2] = Luminescence Cell-Based Dose Confirmation HTS to Identify Inhibitors of Polyadenylation.; type: functional
[3] = target: T1, Microphthalmia-associated transcription factor (Homo sapiens, UniProt O75030); test: reducers of TRPM1 reporter luminescence, concentration series – cell-based, SK-MEL-5, cherry-picked, set 3, MITF inhibitor project, dose response (AID 493073); type: functional;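 note: SK-MEL-5 melanoma cells with luciferase driven by the MITF target TRPM1 promoter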
T1 sequence (O75030 whole entry): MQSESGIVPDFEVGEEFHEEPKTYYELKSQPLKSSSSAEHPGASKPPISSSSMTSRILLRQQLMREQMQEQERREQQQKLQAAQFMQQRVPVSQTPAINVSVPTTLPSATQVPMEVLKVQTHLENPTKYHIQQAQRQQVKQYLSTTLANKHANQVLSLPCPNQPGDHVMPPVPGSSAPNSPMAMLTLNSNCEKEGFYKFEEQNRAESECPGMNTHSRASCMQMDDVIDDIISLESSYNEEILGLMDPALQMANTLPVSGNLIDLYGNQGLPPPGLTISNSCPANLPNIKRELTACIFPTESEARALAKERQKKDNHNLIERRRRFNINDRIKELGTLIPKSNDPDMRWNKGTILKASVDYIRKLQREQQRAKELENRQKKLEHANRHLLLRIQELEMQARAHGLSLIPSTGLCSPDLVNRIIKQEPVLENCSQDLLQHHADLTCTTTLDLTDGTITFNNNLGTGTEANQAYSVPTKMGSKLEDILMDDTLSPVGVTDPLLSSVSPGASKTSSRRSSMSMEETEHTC

Genome polyprotein = Genome polyprotein (dengue virus type 2, UniProt P29990); test: flavivirus cap methylation enzyme inhibition – biochemical, confirmation dose response, primary screen (AID 588689); type: functional
Chain of Genome polyprotein (P29990 2492-3391 limits assumed): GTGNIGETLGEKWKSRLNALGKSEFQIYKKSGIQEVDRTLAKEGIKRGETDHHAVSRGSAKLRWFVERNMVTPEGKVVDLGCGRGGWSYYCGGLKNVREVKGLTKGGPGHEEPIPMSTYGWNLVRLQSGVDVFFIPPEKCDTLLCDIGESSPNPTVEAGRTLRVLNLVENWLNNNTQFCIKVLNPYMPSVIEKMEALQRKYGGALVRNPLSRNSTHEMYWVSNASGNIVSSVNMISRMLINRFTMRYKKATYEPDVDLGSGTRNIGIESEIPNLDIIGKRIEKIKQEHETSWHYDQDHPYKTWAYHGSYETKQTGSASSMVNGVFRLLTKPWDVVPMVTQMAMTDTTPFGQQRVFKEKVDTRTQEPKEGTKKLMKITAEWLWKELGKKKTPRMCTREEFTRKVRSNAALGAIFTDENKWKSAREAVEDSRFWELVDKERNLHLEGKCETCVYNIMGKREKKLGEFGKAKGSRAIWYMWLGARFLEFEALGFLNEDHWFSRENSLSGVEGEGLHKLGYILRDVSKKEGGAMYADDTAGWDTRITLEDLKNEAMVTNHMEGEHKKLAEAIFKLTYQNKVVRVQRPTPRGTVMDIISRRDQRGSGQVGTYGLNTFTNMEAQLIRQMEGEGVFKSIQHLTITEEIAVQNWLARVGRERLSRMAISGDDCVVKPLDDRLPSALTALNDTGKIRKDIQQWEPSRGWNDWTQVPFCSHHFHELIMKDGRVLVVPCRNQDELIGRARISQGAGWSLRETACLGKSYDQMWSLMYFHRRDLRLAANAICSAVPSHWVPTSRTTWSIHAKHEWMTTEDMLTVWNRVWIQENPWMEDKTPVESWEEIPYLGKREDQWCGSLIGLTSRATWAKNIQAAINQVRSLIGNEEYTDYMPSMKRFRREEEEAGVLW

[4] = mRNA 3' processing disruption, beta-gal signal increase – luminescence, S. cerevisiae SKY197-pL101, dose response (AID 2525); type: functional, cell-based
[5] = Luminescence Cell-Based Dose Confirmation HTS to Identify Activators of 5'UTR Stem-Loop Driven Alpha-Synuclein mRNA Translation in H4 Neuroglioblastoma Cells. [Related pubchem assays: 1829 (Project Summary), 1814 (Primary HTS)]; type: functional
[6] = NIH3T3 cell viability loss – ATP luminescence, mouse fibroblasts, counter-screen, dose response (AID 2010); type: functional, cell-based;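 note: cells exposed to compound for about 90 hours before reading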
[7] = Luminescence Cell-Based Dose Response HTS to Identify Activators of Luciferase Translation or Activity in H4 […] Cells. [Related pubchem assays: 1829 (Project Summary), 1814 (Primary HTS)]; type: functional
CAAX prenyl protease 2 = CAAX prenyl protease 2 (Saccharomyces cerevisiae S288c, UniProt Q03530); type: biochemical
Chain of CAAX prenyl protease 2 (Q03530 whole entry): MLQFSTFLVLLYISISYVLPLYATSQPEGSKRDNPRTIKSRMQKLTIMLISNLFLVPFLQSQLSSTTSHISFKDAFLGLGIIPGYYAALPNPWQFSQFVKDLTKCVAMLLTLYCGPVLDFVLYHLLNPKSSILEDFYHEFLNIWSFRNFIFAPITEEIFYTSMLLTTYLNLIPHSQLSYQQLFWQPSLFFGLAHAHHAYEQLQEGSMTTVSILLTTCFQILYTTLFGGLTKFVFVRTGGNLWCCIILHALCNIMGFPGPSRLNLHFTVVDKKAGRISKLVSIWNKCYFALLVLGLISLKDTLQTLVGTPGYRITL

[8] = Trypanosoma cruzi growth suppression in host cells – NIH3T3 host cells, beta-gal luminescence, confirmation (AID 2044); type: functional, cell-based;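 note: intracellular parasites grown in NIH/3T3 mouse fibroblasts as host cells; luminescent beta-galactosidase reporter signal from transgenic T. cruzi replicating inside host cells; inhibitors lower the luminescence signal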
H4 = test: Luminescence Cell-Based Dose Response HTS to Identify Activators of 5'UTR Stem-Loop Driven Prion Protein mRNA Translation in H4 Neuroglioblastoma Cells. [Related pubchem assays: 1829 (Project Summary), 1814 (Primary HTS)]; type: functional; settings: Homo sapiens
[9] = target: Intestinal-type alkaline phosphatase (Homo sapiens, UniProt P09923); test: Dose Response confirmation of uHTS hits from a small molecule inhibitors of human intestinal alkaline phosphatase via a luminescent assay. [Related pubchem assays (depositor defined):AID2544, AID2574]; type: functional
Chain of Intestinal-type alkaline phosphatase (P09923 whole entry): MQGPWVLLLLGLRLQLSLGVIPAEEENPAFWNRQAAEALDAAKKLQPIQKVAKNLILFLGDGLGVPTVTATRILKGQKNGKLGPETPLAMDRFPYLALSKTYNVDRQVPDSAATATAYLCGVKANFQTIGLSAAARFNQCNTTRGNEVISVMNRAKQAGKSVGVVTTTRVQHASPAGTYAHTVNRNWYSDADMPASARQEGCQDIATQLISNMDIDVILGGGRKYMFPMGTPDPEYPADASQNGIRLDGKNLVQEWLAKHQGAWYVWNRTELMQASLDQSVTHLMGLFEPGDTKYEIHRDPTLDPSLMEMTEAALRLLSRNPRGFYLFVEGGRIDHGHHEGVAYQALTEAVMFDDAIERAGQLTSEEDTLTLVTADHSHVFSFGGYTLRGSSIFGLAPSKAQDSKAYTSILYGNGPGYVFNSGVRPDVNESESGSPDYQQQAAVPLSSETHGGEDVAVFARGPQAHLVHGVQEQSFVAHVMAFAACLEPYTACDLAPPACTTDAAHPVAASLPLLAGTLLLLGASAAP

[10] = Luminescence Cell-Based Dose Retest to Confirm Inhibitors of Cancer Stem Cells. [Related pubchem assays (depositor defined):AID2717, AID2721]; type: functional; settings: Homo sapiens
[11] = target: T2, Dual specificity protein phosphatase 6 (Rattus norvegicus, UniProt Q64346)
T2 sequence (Q64346 whole entry): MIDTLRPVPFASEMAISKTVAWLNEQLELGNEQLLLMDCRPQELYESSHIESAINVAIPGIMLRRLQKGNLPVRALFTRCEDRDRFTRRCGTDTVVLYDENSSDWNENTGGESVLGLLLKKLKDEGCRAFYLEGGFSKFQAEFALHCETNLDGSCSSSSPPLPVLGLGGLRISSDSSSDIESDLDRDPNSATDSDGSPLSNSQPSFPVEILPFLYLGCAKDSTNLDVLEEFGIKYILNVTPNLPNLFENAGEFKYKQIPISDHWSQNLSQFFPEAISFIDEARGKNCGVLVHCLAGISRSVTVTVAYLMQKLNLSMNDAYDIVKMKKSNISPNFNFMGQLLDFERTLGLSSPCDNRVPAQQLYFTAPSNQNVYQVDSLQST

[12] = target: T2, Dual specificity protein phosphatase 6; type: functional
[13] = target: T3, Tyrosine-protein phosphatase non-receptor type 7 (Homo sapiens, UniProt P35236); type: functional
T3 sequence (P35236 whole entry): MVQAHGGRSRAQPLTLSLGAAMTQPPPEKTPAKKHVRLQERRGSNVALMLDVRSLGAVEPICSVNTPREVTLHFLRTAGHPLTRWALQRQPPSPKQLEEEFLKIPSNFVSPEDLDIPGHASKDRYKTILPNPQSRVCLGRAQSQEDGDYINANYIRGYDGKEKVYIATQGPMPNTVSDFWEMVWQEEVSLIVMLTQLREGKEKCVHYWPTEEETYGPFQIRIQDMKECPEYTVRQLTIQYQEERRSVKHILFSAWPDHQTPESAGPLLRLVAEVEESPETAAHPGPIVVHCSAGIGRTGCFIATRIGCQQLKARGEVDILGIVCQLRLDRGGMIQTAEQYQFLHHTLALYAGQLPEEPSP

[14] = target: Glyceraldehyde-3-phosphate dehydrogenase (Homo sapiens, UniProt P04406)
Chain of Glyceraldehyde-3-phosphate dehydrogenase (P04406 whole entry): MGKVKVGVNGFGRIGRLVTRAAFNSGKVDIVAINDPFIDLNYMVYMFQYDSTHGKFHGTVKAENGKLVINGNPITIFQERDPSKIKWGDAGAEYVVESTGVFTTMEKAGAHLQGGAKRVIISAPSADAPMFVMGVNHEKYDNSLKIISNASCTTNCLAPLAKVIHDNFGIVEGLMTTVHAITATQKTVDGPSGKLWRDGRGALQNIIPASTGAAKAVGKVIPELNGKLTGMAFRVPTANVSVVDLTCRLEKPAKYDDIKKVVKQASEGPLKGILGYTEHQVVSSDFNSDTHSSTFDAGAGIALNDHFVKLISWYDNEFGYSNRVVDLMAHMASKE

[15] = target: Neurotensin receptor type 1 (Homo sapiens, UniProt P30989); type: functional;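 note: Image-based confirmatory dose-response assay measuring agonist activity at NTR1; NTR1-expressing U2OS osteosarcoma cells imaged for beta-arrestin GFP spot formation; agonist potency where compounds increase beta-arrestin recruitment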
Chain of Neurotensin receptor type 1 (P30989 whole entry): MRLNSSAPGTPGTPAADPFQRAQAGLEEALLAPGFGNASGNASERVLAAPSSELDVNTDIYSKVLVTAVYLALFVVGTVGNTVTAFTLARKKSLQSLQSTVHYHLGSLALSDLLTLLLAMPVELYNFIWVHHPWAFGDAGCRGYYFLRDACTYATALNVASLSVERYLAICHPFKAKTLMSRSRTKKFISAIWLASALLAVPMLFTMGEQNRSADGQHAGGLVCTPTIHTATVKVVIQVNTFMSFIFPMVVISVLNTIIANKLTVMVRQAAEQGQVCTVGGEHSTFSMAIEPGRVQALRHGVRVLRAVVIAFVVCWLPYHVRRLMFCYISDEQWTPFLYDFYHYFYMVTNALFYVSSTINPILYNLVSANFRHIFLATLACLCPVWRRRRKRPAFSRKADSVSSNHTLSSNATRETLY

[16] = blockers of bursicon-stimulated LGR2 cAMP reporter – cell-based, HEK293, CRE-luciferase reporter, cherry pick, set 2, dose response (AID 743343); type: functional;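 note: transfected cells were stimulated with diluted bursicon conditioned medium after compound addition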
[17] = viability loss in HEK293 cells – cell-based, plate reader, cherry-picked samples, cytotoxicity control, dose response (AID 743446); type: functional
[18] = toxicity toward HepG2 liver cells – cell-based, plate reader, cherry-pick, antagonist series, cytotoxicity control, dose response (AID 743416); type: functional
[19] = A549 cell cytotoxicity, dose response, cytotoxicity control, plate reader, cherry-pick, antagonist series (AID 743412); type: functional, cell-based
[20] = target: Melanin-concentrating hormone receptor 1 (Homo sapiens, UniProt Q99705); test: Fluorescence-based counterscreen for antagonists of the G-protein coupled receptor 7 (GPR7): cell-based high throughput dose response assay to identify antagonists of the melanin-concentrating hormone receptor 1 (MCHR1).; type: functional
Chain of Melanin-concentrating hormone receptor 1 (Q99705 whole entry): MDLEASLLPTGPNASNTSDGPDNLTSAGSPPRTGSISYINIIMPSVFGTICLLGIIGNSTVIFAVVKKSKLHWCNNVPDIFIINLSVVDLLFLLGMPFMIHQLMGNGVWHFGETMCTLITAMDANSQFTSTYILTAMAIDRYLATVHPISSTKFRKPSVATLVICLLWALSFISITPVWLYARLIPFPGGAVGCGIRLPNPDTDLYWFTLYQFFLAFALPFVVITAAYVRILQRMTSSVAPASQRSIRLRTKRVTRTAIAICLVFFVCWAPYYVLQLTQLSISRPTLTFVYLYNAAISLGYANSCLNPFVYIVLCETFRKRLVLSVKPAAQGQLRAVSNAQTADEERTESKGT

Cc1ccc(C(=O)c2no[n+]([O-])c2C(=O)c2ccc(C)cc2)cc1
AC50 [1]: 2.37 µM (active) | EC50 [2]: 2.92 µM (active) | AC50 [3]: 16.7 µM (active) | IC50 (Genome polyprotein): > 100 µM (active) | EC50 [4]: 3.01 µM (active)

Cc1ccc2c(c1)sc[n+]2Cc1ccccc1
EC50 [5]: 11.9 µM (active) | EC50 [6]: > 60 µM (not active) | EC50 [7]: 46.1 µM (active) | AC50 (CAAX prenyl protease 2): 18.6 µM (active) | EC50 [8]: 1.87 µM (active) | EC50 (H4): 68.9 µM (inconclusive)

Cc1ccc(NCc2ccc([N+](=O)[O-])s2)cc1
IC50 [9]: > 100 µM (inactive) | AC50 [10]: > 195 µM (inactive)

CCOC(=O)C1Nc2c(O)cccc2C2C=CCC12 (stereo not drawn)
IC50 [11]: > 100 µM (inactive) | IC50 [12]: > 100 µM (inactive) | IC50 [13]: > 100 µM (not active) | IC50 [14]: > 100 µM (not active)

O=C(Nc1ccc(N2CCN(C(=O)c3ccccc3)CC2)cc1)c1cc2ccccc2o1
EC50 [15]: 24.4 µM (inactive) | AC50 [16]: 5.93 µM (active) | AC50 [17]: 16.8 µM (active) | AC50 [18]: 5.12 µM (active) | AC50 [19]: 45.5 µM (active)

Cc1ccccc1CC1(CO)CCCN(C(=O)c2cc(Cl)ccc2F)C1 (stereo not drawn)
IC50 [20]: > 14.6 µM (not active)
